# Experimental data reported in patent US20040029965A1, “Formulations for reducing or eliminating toxicity of enviromental hormones containing ursodeoxycholic acid” (priority 2000, published 2004).
# System: Ovariectomized female B6C3F1 mice
# Test: Uterus weight changes by bisphenol A (uterine proliferation)
# Type: in vivo
# Experimental: Ovariectomized female B6C3F1 mice of 5 weeks old, the average weight of which was 18 to 22 g and had been bred in CRJ, were purchased. They were acclimated under the constant breeding conditions, i.e. the constant temperature of 24±1° C., the humidity of 60±10% and the light and darkness cycle of 12 hours, for one week and then, utilized in the experiment. The animals were supplied with solid feed purchased from Purina and supplied with water ad libitum. After acclimation, test materials dissolved in corn oil were subcutaneously injected once a day for 4 days. The test materials used herein, stock solutions of bisphenol A and UDCA were prepared using ethanol. 2 mg of bisphenol A dissolved in 0.2 ml of corn oil was administered to the mice alone or in combination with UDCA once a day. The administration dose of UDCA was 0.2 or 2.0 mg, and corn oil was administered to the solvent control.
# The results are expressed as Mean±Standard Deviation values. ANOVA was performed to evaluate the mean distribution of administered groups. In case that the significance was recognized in ANOVA, the Student's t-test was carried out in the levels of p<0.05 and p<0.01.
smiles,measurement,setting,value
"CC(C)(c1ccc(O)cc1)c1ccc(O)cc1 [Bisphenol A, bisphenol A]",increase of the weight of uterus,"2 mg of bisphenol A once a day, versus corn oil control",about two-fold increased
same,Mean weight of uterus ± SD,"Bisphenol A 2 mg/day s.c. for 4 days, alone",13.5 ± 1.75
